The text below walks through data of PMC6002473, “An Evolutionarily Conserved Structural Platform for PRC2 Inhibition by a Class of Ezh2 Inhibitors” (Scientific Reports, 2018).

One may read the IC50 as the concentration at which inhibition is half-maximal. A higher IC50 goes with lower potency.

The target in the assay is T1, ctEzh2 (ctPRC2) (Thermochaetoides thermophila, UniProt G0SDW4).
T1 construct: gene EZH2; Fusion of Ezh2 (residues 191–950) and the VEFS domain of Suz12 (residues 530–691), and full length Eed (residues 1–565); with Eed, Suz12(VEFS)
T1 sequence (G0SDW4 191-950): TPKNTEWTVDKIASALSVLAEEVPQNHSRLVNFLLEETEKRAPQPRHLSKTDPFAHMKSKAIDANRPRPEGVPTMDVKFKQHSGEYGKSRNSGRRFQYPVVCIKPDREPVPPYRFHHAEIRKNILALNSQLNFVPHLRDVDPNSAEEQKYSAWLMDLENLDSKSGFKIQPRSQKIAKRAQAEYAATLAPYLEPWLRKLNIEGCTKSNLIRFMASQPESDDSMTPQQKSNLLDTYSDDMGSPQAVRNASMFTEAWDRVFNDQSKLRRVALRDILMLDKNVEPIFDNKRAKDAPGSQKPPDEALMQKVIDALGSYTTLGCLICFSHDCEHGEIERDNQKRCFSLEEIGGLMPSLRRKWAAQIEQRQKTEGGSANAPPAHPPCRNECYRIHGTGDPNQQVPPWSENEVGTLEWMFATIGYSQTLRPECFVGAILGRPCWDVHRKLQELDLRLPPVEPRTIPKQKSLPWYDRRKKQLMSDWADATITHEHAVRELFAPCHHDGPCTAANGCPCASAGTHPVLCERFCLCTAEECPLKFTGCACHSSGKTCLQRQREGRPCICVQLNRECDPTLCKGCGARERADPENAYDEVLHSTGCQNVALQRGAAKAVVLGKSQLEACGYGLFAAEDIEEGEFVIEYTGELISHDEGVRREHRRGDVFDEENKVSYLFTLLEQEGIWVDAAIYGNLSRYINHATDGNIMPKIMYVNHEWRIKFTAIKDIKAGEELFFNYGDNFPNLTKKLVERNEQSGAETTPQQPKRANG
T1 sequence (G0S8H7 1-565 partner): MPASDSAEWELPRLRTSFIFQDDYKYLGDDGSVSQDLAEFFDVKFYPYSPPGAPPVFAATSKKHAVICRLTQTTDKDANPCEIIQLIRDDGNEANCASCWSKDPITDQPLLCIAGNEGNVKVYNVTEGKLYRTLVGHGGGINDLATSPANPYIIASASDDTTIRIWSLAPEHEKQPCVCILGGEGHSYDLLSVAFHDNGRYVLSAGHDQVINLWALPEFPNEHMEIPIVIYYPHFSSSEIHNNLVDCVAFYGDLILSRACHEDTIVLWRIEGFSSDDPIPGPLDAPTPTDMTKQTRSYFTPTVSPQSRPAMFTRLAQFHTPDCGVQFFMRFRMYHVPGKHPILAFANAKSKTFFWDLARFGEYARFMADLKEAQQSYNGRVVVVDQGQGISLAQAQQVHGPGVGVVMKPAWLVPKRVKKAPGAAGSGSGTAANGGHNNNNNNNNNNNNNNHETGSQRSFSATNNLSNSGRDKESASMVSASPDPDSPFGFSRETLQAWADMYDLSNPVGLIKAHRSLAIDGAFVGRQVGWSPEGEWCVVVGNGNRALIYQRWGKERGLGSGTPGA
T1 sequence (G0RYC6 530-691 partner): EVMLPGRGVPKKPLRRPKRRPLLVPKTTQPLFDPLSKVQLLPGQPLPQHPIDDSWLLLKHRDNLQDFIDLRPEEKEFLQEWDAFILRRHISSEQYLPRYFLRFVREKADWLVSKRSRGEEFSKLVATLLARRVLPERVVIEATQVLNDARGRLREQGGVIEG
As to the kind of experiment: co-crystal structure ([…] Å, soaked); radiometric methyltransferase IC50. The assay is classed as biochemical.

As to `CC[C@H](C)n1cc(C)c2c(C(=O)NCc3c(C)cc(C)[nH]c3=O)cc(-c3ccc(N4CCNCC4)nc3)cc21` [GSK126], the IC50 is around 100 µM.
